Results as given in patent US20090221624A1, “4-AMINOQUINOLINE COMPOUNDS FOR TREATING VIRUS-RELATED CONDITIONS” (priority 2005, published 2009).

Columns and labels:
[1] = tested on: HCV replicon (Clone A cells, Huh7, subgenomic hepatits C virus RNA); experiment: HCV Neo screening assay (HCV replicon, NPTII ELISA); assay type: cell-based, hepatitis C virus; details: for EC50 / inhibition at 25 µM: Hepatitis C virus, Huh-7; for EC50: Secondary Data, HCV; for inhibition at 25 µM: primary screening, 25 μM final concentration, 24 hours, percent inhibition of viral replication, read-out: HCV Inh; for HCV TI: therapeutic index CC50/EC50, HCV
RSV minigenome = experiment: RSV minigenome-dependent β-galactosidase expression assay (RSV β-Gal); assay type: cell-based, respiratory syncytial virus; details: for EC50 / inhibition at 25 µM: human respiratory syncytial virus; for EC50: Secondary Data, RSV, read-out: RSV EC50; for inhibition at 25 µM: primary screening, 25 μM final concentration, 24 hours, percent inhibition of viral replication, read-out: RSV Inh; for RSV TI: therapeutic index CC50/EC50, RSV
WNV (WN-hRuPac cells) = experiment: WNV antiviral activity, WN-hRuPac cells, Renilla luciferase; assay type: cell-based, West Nile virus; details: for EC50 / inhibition at 25 µM: West Nile virus; for EC50: Secondary Data, WNV, read-out: WNV EC50; for inhibition at 25 µM: primary screening, 25 μM final concentration, 24 hours, percent inhibition of viral replication, read-out: WNV Inh; for WNV TI: therapeutic index CC50/EC50, WNV
YFV (YF-hRuPac cells) = experiment: microbe, parasite or virus in culture; assay type: cell-based, yellow fever virus; details: for inhibition at 25 µM / EC50: Yellow fever virus; for inhibition at 25 µM: 24 h, read-out: YFV Inh; for EC50: read-out: YFV EC50
DNG (D2-hRuPac cells) = experiment: DNG antiviral activity, D2-hRuPac cells, Renilla luciferase; assay type: cell-based, Dengue fever virus; details: Dengue virus, secondary screening
EBOV minigenome = experiment: microbe, parasite or virus in culture; assay type: cell-based, Ebola virus; details: Zaire ebolavirus; for inhibition at 25 µM: 24 h, read-out: EBOV Inh; for EC50: read-out: EBOV EC50
SINV (SR19-F-luc cells) = experiment: SINV antiviral activity, SR19-F-luc cells, Firefly luciferase; assay type: cell-based; details: Sindbis virus; for inhibition at 25 µM: primary screening, 25 μM final concentration, 24 hours, percent inhibition of viral replication, read-out: SINV Inh; for EC50: secondary screening, SR19-F-luc cells

Compound | inhibition at 25 µM [1] | EC50 (RSV minigenome) | inhibition at 25 µM (RSV minigenome) | RSV TI (RSV minigenome) | EC50 (WNV (WN-hRuPac cells)) | inhibition at 25 µM (WNV (WN-hRuPac cells)) | YFV TI (YFV (YF-hRuPac cells)) | inhibition at 25 µM (YFV (YF-hRuPac cells)) | EC50 (YFV (YF-hRuPac cells)) | EC50 (DNG (D2-hRuPac cells)) | inhibition at 25 µM (EBOV minigenome) | EC50 (EBOV minigenome) | inhibition at 25 µM (SINV (SR19-F-luc cells)) | EC50 (SINV (SR19-F-luc cells)) | CC50 (in vitro; DNG CC50) | CC50 (in vitro; EBOV CC50) | CC50 (in vitro; RSV CC50) | CC50 (in vitro; SINV CC50) | CC50 (in vitro; WNV CC50) | CC50 (in vitro; YFV CC50) | further results
CCOc1ccc2nc(C)cc(Nc3ccc(Br)cc3)c2c1 [Compound 41] | 117% | 2.04 µM | 99.4% | 14.11 | 7.4 µM | 100% | 7.97 | 96.5% | 3.61 µM | 7.91 µM | 95.2% | 75 µM | 97.2% | 2.96 µM | 28.8 µM | 28.8 µM | 28.8 µM | 28.8 µM | 28.8 µM | 28.8 µM | EC50 [1]: 4 µM; HCV TI [1]: 0.75; WNV TI (WNV (WN-hRuPac cells)): 3.89; CC50 (in vitro; HCV CC50): 3.01 µM
CCOC(=O)c1cnc2c(C)cccc2c1NCc1ccco1 [Compound 46] | 15% | 1.31 µM | 94.7% | 37.48 | 2.96 µM | 103% | 13.87 | 97.7% | 3.54 µM | 10.2 µM | 90% | 7.92 µM | -16.9% | 49.7 µM | 49.1 µM | 49.1 µM | 49.1 µM | 49.1 µM | 49.1 µM | 49.1 µM | WNV TI (WNV (WN-hRuPac cells)): 16.59
CCOc1ccc2nc(C)cc(Nc3ccc(OCc4ccccc4Cl)cc3)c2c1 [Compound 42] | 96.5% | 1.48 µM | 100% | 17.29 | 1.9 µM | 100% | 14.22 | 100% | 1.8 µM | 5.05 µM | 99.5% | 65.8 µM | 99.8% | 2.99 µM | 25.6 µM | 25.6 µM | 25.6 µM | 25.6 µM | 25.6 µM | 25.6 µM | EC50 [1]: 1.3 µM; HCV TI [1]: 0.93; WNV TI (WNV (WN-hRuPac cells)): 13.47; CC50 (in vitro; HCV CC50): 1.21 µM
Cc1cc(C)c2nc(C)cc(Nc3ccc(O)cc3)c2c1 [Compound 49] | 113% | 4.39 µM | 90.2% | 8.94 | 5.58 µM | 66.4% | 3.57 | 66.5% | 11 µM | 13.2 µM | 69.9% | 6.88 µM | 72.5% | ≥ 75 µM | 39.3 µM | 39.3 µM | 39.3 µM | 39.3 µM | 39.3 µM | 39.3 µM | EC50 [1]: 11.1 µM; HCV TI [1]: 1.47; WNV TI (WNV (WN-hRuPac cells)): 7.04; CC50 (in vitro; HCV CC50): 16.3 µM
CCOC(=O)c1cnc2ccc(OC)cc2c1NCc1ccco1 [Compound 29] | 35.3% | 0.29 µM | 96.2% | 76.21 | 3.36 µM | 105% | 5.97 | 98.4% | 3.7 µM | 7.43 µM | 86.4% | 8.75 µM | -33.8% | 43 µM | 22.1 µM | 22.1 µM | 22.1 µM | 22.1 µM | 22.1 µM | 22.1 µM | WNV TI (WNV (WN-hRuPac cells)): 6.58; CC50 (in vitro; HCV CC50): ≥ 75 µM
Cc1ccc2nc(C)cc(N3CCC(C)CC3)c2c1 [Compound 15] | 45.1% | 7.34 µM | 72.6% | 9.94 | ≥ 75 µM | 55.9% | 1.57 | 37.5% | 46.4 µM | 71.9 µM | 49.2% | 71.1 µM | 72% | 5.58 µM | 72.9 µM | 72.9 µM | 72.9 µM | 72.9 µM | 72.9 µM | 72.9 µM | WNV TI (WNV (WN-hRuPac cells)): 0.97; CC50 (in vitro; HCV CC50): 35.7 µM
COC(=O)c1ccc(Nc2cc(C)nc3ccc(Cl)cc23)cc1 [Compound 60] | 71.3% | ≥ 75 µM | 38.1% | – | 14.6 µM | 68.3% | 2.17 | 79.4% | 34.6 µM | 15.2 µM | 57.4% | 75 µM | 45.8% | 12 µM | ≥ 75 µM | ≥ 75 µM | ≥ 75 µM | ≥ 75 µM | ≥ 75 µM | ≥ 75 µM | EC50 [1]: 1.4 µM; HCV TI [1]: 32.5; WNV TI (WNV (WN-hRuPac cells)): 5.14; CC50 (in vitro; HCV CC50): 45.5 µM
CCOC(=O)c1cnc2c(Cl)cccc2c1NCc1ccco1 [Compound 55] | 21.9% | 5.46 µM | 81.5% | 8.85 | 13 µM | 94.9% | 7.96 | 94.3% | 6.07 µM | 8.53 µM | 72.8% | 10.4 µM | 29.1% | ≥ 75 µM | 48.3 µM | 48.3 µM | 48.3 µM | 48.3 µM | 48.3 µM | 48.3 µM | WNV TI (WNV (WN-hRuPac cells)): 3.72; CC50 (in vitro; HCV CC50): ≥ 75 µM
COc1cccc2c(Nc3cccc([N+](=O)[O-])c3)cc(C)nc12 [Compound 25] | 159% | 4.73 µM | 99.9% | 4.85 | 3.18 µM | 100% | 6.25 | 100% | 3.67 µM | 3.89 µM | 99.4% | 75 µM | 99.8% | 2.13 µM | 22.9 µM | 22.9 µM | 22.9 µM | 22.9 µM | 22.9 µM | 22.9 µM | EC50 [1]: 4.85 µM; HCV TI [1]: 2.62; WNV TI (WNV (WN-hRuPac cells)): 7.22; CC50 (in vitro; HCV CC50): 12.7 µM
COC(=O)c1ccc(Nc2cc(C)nc3cc(Cl)ccc23)cc1 [Compound 14] | 81.2% | 36.9 µM | 48.4% | 1.46 | ≥ 75 µM | 51.6% | 5.82 | 54.6% | 9.23 µM | 54.3 µM | -19.5% | 65.6 µM | 56.7% | 17.6 µM | 53.7 µM | 53.7 µM | 53.7 µM | 53.7 µM | 53.7 µM | 53.7 µM | EC50 [1]: 1.3 µM; HCV TI [1]: 57.69; WNV TI (WNV (WN-hRuPac cells)): 0.72; CC50 (in vitro; HCV CC50): ≥ 75 µM
CC(=O)c1cccc(Nc2cc(C)nc3ccccc23)c1 [Compound 17] | 12.3% | 37.3 µM | 50.7% | 2.01 | ≥ 75 µM | 40.3% | 1.18 | 54% | 63.6 µM | ≥ 75 µM | -42% | 75 µM | 72.1% | 3.83 µM | ≥ 75 µM | ≥ 75 µM | ≥ 75 µM | ≥ 75 µM | ≥ 75 µM | ≥ 75 µM | CC50 (in vitro; HCV CC50): 30.4 µM
CCOC(=O)c1ccc(Nc2cc(C)nc3c2ccc2ccccc23)cc1 [Compound 4] | 105% | 37 µM | 47.7% | 1.97 | ≥ 75 µM | 28.4% | 17.1 | 81.7% | 4.26 µM | 32.7 µM | 6.57% | 59.3 µM | -22.2% | ≥ 75 µM | 72.9 µM | 72.9 µM | 72.9 µM | 72.9 µM | 72.9 µM | 72.9 µM | EC50 [1]: 15.6 µM; HCV TI [1]: 2.08; WNV TI (WNV (WN-hRuPac cells)): 0.97; CC50 (in vitro; HCV CC50): 32.5 µM
